Patent US11542240B2, “STK19 inhibitors for treatment of cancer” (TRUSTEES OF BOSTON UNIVERSITY, priority 2018, dated 2023)
Read-outs that look alike come from different tables or passages of the source.

Columns and labels:
Experiment in all cases: biochemical
Format in all cases: binding
[1] = target: panel of 468 diverse kinases (Homo sapiens, UniProt Q96L34); conditions: MARK4; 1000 nM; read-out: Percent Control
[2] = target: panel of 468 diverse kinases (Homo sapiens, UniProt Q9UK32); conditions: 1000 nM, read-out: Percent Control
[3] = target: panel of 468 diverse kinases (Homo sapiens, UniProt Q13163); conditions: MEK5; 1000 nM; read-out: Percent Control
[4] = target: panel of 468 diverse kinases (Homo sapiens, UniProt P04629); conditions: TRKA; 1000 nM; read-out: Percent Control
[5] = target: panel of 468 diverse kinases (Homo sapiens, UniProt P42338); conditions: PIK3CB; 1000 nM; read-out: Percent Control
[6] = target: panel of 468 diverse kinases (Homo sapiens, UniProt Q15349); conditions: 1000 nM, read-out: Percent Control
[7] = target: panel of 468 diverse kinases (Homo sapiens, UniProt O75116); conditions: ROCK2; 1000 nM; read-out: Percent Control
[8] = target: panel of 468 diverse kinases (Homo sapiens, UniProt Q9H093); conditions: SNARK; 1000 nM; read-out: Percent Control
[9] = target: panel of 468 diverse kinases (Homo sapiens, UniProt P08581); conditions: MET; 1000 nM; read-out: Percent Control
[10] = target: panel of 468 diverse kinases (Homo sapiens, UniProt P42336, H1047Y); conditions: PIK3CA(H1047Y); 1000 nM; read-out: Percent Control
[11] = target: panel of 468 diverse kinases (Homo sapiens, UniProt Q13153); conditions: PAK1; 1000 nM; read-out: Percent Control
[12] = target: panel of 468 diverse kinases (Homo sapiens, UniProt P00519, H396P); conditions: 1000 nM, read-out: Percent Control
[13] = target: panel of 468 diverse kinases (Homo sapiens, UniProt P19784); conditions: CSNK2A2; 1000 nM; read-out: Percent Control
[14] = target: panel of 468 diverse kinases (Homo sapiens, UniProt P07333); conditions: 1000 nM, read-out: Percent Control
Chain of panel of 468 diverse kinases (Homo sapiens, UniProt P07333) (P07333 20-972 limits assumed): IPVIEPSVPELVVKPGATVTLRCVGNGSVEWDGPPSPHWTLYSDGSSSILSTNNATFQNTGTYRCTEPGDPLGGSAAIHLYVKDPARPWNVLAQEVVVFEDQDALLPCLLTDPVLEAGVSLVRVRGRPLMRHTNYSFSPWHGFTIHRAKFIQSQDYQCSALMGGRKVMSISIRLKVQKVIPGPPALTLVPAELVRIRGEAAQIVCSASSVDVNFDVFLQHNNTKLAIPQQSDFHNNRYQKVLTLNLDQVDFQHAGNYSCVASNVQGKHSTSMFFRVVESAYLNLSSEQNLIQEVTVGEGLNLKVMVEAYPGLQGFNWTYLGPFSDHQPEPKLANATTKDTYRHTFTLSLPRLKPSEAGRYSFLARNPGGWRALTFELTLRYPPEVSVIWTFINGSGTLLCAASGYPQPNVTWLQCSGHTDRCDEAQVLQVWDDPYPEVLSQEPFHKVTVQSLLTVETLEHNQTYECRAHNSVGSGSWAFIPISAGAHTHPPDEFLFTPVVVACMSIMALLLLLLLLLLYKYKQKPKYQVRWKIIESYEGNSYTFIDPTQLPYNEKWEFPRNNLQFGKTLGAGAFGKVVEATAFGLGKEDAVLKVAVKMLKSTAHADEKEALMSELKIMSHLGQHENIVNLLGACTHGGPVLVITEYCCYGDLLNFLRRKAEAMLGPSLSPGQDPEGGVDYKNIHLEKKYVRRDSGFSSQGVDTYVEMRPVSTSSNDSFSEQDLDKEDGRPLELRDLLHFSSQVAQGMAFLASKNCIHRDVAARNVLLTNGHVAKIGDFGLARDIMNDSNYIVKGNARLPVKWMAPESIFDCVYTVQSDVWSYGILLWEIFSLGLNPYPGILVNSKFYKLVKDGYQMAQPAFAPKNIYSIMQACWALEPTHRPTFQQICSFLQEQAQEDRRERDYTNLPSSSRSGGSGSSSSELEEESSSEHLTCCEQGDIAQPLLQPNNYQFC

[15] = target: panel of 468 diverse kinases (Homo sapiens, UniProt O75747); conditions: PIK3C2G; 1000 nM; read-out: Percent Control
[16] = target: panel of 468 diverse kinases (Homo sapiens, UniProt P20794); conditions: MAK; 1000 nM; read-out: Percent Control
[17] = target: panel of 468 diverse kinases (Homo sapiens, UniProt O14733); conditions: MKK7; 1000 nM; read-out: Percent Control
Chain of panel of 468 diverse kinases (Homo sapiens, UniProt O14733) (O14733 2-419 limits assumed): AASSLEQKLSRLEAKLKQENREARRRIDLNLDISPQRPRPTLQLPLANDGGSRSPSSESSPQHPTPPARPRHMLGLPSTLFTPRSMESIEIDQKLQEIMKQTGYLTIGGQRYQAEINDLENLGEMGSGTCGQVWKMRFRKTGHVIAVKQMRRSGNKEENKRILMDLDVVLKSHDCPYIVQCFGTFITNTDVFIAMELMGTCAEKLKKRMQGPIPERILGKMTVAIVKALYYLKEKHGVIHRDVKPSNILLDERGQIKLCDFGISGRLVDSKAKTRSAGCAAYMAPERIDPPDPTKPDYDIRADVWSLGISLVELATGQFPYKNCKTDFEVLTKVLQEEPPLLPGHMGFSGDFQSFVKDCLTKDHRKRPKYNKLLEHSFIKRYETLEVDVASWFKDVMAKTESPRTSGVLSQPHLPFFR

[18] = target: panel of 468 diverse kinases (Homo sapiens, UniProt P78356); conditions: PIP5K2B; 1000 nM; read-out: Percent Control
[19] = target: panel of 468 diverse kinases (Homo sapiens, UniProt P14616); conditions: INSRR; 1000 nM; read-out: Percent Control
Chain of panel of 468 diverse kinases (Homo sapiens, UniProt P14616) (P14616 27-742 limits assumed): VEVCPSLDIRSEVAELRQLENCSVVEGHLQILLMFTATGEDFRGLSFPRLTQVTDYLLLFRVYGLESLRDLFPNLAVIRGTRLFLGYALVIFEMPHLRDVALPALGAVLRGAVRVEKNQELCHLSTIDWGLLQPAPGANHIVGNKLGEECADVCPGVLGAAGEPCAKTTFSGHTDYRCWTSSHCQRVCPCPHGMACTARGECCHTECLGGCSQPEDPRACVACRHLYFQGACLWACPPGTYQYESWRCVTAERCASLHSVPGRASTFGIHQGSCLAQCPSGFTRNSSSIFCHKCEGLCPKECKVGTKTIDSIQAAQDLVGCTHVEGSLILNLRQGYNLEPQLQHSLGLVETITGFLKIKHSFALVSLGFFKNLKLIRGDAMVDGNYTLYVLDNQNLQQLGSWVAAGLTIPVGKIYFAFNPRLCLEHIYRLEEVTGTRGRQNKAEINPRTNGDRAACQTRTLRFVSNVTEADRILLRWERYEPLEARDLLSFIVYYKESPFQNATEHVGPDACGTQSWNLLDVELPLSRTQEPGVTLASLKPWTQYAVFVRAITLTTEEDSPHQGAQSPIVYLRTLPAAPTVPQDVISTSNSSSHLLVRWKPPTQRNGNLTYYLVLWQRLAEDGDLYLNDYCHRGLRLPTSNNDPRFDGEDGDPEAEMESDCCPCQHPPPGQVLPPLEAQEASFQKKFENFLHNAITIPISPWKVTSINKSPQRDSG
Chain of panel of 468 diverse kinases (Homo sapiens, UniProt P14616) (P14616 747-1297 limits assumed): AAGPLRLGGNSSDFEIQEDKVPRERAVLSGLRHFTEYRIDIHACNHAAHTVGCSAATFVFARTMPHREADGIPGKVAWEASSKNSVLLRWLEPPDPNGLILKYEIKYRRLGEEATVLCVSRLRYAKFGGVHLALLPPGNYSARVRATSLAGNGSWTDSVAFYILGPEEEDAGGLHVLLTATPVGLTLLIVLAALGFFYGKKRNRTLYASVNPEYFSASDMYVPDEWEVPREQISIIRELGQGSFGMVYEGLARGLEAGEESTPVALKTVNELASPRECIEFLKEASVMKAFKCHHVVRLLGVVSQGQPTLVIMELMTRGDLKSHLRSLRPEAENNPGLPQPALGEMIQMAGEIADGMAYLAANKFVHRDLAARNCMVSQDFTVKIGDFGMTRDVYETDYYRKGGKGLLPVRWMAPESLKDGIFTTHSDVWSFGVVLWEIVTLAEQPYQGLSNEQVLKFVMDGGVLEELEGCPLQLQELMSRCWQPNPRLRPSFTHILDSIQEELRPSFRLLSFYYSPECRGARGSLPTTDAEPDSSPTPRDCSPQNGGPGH

[20] = target: panel of 468 diverse kinases (Homo sapiens, UniProt O00329); conditions: PIK3CD; 1000 nM; read-out: Percent Control
[21] = target: panel of 468 diverse kinases (Homo sapiens, UniProt Q9H2X6); conditions: HIPK2; 1000 nM; read-out: Percent Control
[22] = target: panel of 468 diverse kinases (Homo sapiens, UniProt P07949, V804M); conditions: RET(V804M); 1000 nM; read-out: Percent Control
Chain of panel of 468 diverse kinases (Homo sapiens, UniProt P07949, V804M) (P07949 29-1114 V804M limits assumed): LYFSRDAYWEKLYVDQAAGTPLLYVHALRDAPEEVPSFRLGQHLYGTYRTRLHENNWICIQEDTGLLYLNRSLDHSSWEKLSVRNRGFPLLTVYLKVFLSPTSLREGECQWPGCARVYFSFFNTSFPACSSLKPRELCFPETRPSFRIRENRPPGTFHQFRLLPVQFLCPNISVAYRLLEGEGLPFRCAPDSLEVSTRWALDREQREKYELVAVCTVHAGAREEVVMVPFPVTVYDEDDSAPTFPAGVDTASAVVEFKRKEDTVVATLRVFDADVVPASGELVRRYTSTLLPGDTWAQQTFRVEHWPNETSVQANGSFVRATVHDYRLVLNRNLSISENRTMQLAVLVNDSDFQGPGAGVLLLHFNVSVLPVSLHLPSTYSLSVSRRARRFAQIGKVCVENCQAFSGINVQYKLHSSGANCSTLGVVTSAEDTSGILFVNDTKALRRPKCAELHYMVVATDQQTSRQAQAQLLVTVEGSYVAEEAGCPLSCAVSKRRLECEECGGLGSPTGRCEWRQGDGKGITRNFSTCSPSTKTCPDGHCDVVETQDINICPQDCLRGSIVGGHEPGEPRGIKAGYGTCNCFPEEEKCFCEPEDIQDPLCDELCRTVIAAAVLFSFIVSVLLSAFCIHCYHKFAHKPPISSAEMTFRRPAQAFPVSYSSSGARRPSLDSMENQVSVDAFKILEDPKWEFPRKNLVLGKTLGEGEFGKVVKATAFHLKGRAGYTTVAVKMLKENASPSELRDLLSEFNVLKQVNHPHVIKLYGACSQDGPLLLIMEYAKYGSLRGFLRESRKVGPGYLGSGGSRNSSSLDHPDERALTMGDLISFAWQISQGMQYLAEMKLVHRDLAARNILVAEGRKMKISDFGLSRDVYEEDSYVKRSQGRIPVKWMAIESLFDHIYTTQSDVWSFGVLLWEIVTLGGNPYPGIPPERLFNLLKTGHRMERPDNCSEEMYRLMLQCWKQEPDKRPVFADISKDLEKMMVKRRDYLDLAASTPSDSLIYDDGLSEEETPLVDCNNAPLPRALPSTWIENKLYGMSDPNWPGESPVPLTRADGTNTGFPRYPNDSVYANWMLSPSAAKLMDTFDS

[23] = target: panel of 468 diverse kinases (Homo sapiens, UniProt Q99640); conditions: PKMYT1; 1000 nM; read-out: Percent Control
[24] = target: panel of 468 diverse kinases (Homo sapiens, UniProt P54753); conditions: EPHB3; 1000 nM; read-out: Percent Control
[25] = target: panel of 468 diverse kinases (Homo sapiens, UniProt Q9Y243); conditions: AKT3; 1000 nM; read-out: Percent Control
Chain of panel of 468 diverse kinases (Homo sapiens, UniProt Q9Y243) (Q9Y243 2-479 limits assumed): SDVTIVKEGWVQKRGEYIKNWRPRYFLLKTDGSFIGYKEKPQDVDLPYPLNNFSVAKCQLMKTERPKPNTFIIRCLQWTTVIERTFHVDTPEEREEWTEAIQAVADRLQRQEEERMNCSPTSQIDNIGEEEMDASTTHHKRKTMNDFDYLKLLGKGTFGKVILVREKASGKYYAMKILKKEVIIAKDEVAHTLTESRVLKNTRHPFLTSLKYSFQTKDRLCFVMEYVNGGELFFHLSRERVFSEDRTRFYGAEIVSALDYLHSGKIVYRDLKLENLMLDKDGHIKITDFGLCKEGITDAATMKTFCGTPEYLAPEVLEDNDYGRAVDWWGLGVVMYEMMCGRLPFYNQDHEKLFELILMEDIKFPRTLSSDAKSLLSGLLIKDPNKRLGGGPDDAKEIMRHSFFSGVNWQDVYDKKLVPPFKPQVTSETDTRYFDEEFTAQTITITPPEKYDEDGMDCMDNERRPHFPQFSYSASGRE

[26] = target: panel of 468 diverse kinases (Homo sapiens, UniProt Q9Y616); conditions: IRAK3; 1000 nM; read-out: Percent Control
[27] = target: panel of 468 diverse kinases (Homo sapiens, UniProt Q6P3R8); conditions: NEK5; 1000 nM; read-out: Percent Control
[28] = target: panel of 468 diverse kinases (Homo sapiens, UniProt P12931); conditions: SRC; 1000 nM; read-out: Percent Control
Chain of panel of 468 diverse kinases (Homo sapiens, UniProt P12931) (P12931 2-536 limits assumed): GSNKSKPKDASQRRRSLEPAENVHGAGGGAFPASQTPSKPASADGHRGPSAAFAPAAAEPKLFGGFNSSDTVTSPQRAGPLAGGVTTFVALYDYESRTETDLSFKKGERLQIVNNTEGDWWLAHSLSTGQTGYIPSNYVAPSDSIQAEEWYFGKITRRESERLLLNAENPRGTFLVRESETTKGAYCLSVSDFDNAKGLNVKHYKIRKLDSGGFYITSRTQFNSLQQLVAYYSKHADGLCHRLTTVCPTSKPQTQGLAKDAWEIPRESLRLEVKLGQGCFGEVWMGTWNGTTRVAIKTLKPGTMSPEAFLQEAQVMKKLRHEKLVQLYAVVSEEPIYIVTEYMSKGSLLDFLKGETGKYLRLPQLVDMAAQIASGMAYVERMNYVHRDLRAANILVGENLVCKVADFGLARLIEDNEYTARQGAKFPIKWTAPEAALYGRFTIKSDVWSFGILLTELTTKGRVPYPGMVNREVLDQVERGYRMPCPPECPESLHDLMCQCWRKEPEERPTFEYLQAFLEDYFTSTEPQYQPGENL

[29] = target: panel of 468 diverse kinases (Homo sapiens, UniProt Q06187); conditions: BTK; 1000 nM; read-out: Percent Control
[30] = target: panel of 468 diverse kinases (Homo sapiens, UniProt O96013); conditions: PAK4; 1000 nM; read-out: Percent Control

COc1cc2nc(NC3CC3)nc(NC3CCN(C(C)C)CC3)c2cc1OC [Formula IV]
remaining activity at 1 µM [1]: 95% | remaining activity at 1 µM ([2]; RSK4(Kin.Dom.1-N-terminal)): 92% | remaining activity at 1 µM ([2]; RSK4(Kin.Dom.2-C-terminal)): 82% | remaining activity at 1 µM [3]: 60% | remaining activity at 1 µM [4]: 67% | remaining activity at 1 µM [5]: 71% | remaining activity at 1 µM ([6]; RSK3(Kin.Dom.1-N-terminal)): 93% | remaining activity at 1 µM ([6]; RSK3(Kin.Dom.2-C-terminal)): 81% | remaining activity at 1 µM [7]: 49% | remaining activity at 1 µM [8]: 57% | remaining activity at 1 µM [9]: 96% | remaining activity at 1 µM [10]: 91% | remaining activity at 1 µM [11]: 87% | remaining activity at 1 µM ([12]; ABL1 (H396P)-nonphosphorylated): 69% | remaining activity at 1 µM ([12]; ABL1(H396P)-phosphorylated): 68% | remaining activity at 1 µM [13]: 63% | remaining activity at 1 µM ([14]; CSF1R-autoinhibited): 54% | remaining activity at 1 µM ([14]; CSF1R): 91% | remaining activity at 1 µM [15]: 100% | remaining activity at 1 µM [16]: 88% | remaining activity at 1 µM [17]: 72% | remaining activity at 1 µM [18]: 100% | remaining activity at 1 µM [19]: 86% | remaining activity at 1 µM [20]: 74% | remaining activity at 1 µM [21]: 64% | remaining activity at 1 µM [22]: 100% | remaining activity at 1 µM [23]: 93% | remaining activity at 1 µM [24]: 100% | remaining activity at 1 µM [25]: 91% | remaining activity at 1 µM [26]: 99% | remaining activity at 1 µM [27]: 90% | remaining activity at 1 µM [28]: 97% | remaining activity at 1 µM [29]: 89% | remaining activity at 1 µM [30]: 96%
